Assay results from patent publication US20220170930A1, “METHOD FOR SCREENING COMPOUND FOR TREATING OR PREVENTING POLYQ-RELATED NEURODEGENERATIVE DISEASES” (FUDAN UNIVERSITY, priority 2019, published 2022).

Key:
[1] = target: T1, binding between HTTexon1-Q72-MBP and LC3B (Homo sapiens, UniProt P42858+Q9GZQ8, INS38QQQQQQQQQQQQQQQQQQQQQQQQQQQQQQQQQQQQQQQQQQQQQQQQQQQ); assay: In vitro pull-down HTTexon1-Q72-MBP and LC3B; format: biochemical; settings: 1 μM compound 1 or 100 nM compound 4
T1 construct: His8 (N, cleaved yes); GST (from pGEX-6P1) (N, cleaved yes); made in house; LC3B: E. coli BL21(DE3)pLsyS
T1 sequence (P42858 other isoform, or with tags, fused parts or gaps with the stated changes): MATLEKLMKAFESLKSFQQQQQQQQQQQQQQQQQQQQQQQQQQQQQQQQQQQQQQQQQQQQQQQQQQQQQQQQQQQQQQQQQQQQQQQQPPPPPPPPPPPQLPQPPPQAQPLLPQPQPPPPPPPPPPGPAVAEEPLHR
Protocol: Incubation was conducted. Then the unbound proteins were removed.
(3) The resin-bound proteins were eluted and analyzed by SDS-PAGE and Western-blots with anti-LC3 antibody (FIG. 22a).

MBP-ATXN3-Q28 = target: T2, MBP-ATXN3-Q28 (Homo sapiens, UniProt P54252, INS305QQQQQQQQQQQQQQQQQQ); assay: MST affinity with MBP-ATXN3-Q28; format: binding
T2 construct: His8 with TEV protease cleavage site; made in house; host or cells: Escherichia coli Rosetta(DE3)pLsyS
T2 sequence (P54252 with tags, fused parts or gaps isoform P54252-4 with the stated changes): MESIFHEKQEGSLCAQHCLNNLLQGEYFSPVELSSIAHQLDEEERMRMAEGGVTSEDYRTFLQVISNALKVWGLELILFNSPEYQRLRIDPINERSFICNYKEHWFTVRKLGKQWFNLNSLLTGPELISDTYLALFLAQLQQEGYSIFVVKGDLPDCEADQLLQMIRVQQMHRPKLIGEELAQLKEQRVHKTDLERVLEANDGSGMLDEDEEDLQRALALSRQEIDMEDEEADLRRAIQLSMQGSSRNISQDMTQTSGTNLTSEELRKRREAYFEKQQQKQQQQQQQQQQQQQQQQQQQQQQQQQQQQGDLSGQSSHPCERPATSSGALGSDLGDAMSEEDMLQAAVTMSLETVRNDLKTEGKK
Protocol: Protein concentration was 500 nM.

His-ATXN1-Q92 = target: T3, His-ATXN1-Q92 (Homo sapiens, UniProt P54253, INS208QQQQQQQQQQQQQQQQQQQQQQQQQQQQQQQQQQQQQQQQQQQQQQQQQQQQQQQQQQQQQQQQQQQQQQQQQQQQQQQQ); assay: OI-RD affinity screening with His-ATXN1-Q92; format: binding; settings: OI-RD difference images
T3 construct: made in house; host or cells: HEK293T cells (ATCC, CRL-3216)
T3 sequence (P54253 with tags, fused parts or gaps with the stated changes): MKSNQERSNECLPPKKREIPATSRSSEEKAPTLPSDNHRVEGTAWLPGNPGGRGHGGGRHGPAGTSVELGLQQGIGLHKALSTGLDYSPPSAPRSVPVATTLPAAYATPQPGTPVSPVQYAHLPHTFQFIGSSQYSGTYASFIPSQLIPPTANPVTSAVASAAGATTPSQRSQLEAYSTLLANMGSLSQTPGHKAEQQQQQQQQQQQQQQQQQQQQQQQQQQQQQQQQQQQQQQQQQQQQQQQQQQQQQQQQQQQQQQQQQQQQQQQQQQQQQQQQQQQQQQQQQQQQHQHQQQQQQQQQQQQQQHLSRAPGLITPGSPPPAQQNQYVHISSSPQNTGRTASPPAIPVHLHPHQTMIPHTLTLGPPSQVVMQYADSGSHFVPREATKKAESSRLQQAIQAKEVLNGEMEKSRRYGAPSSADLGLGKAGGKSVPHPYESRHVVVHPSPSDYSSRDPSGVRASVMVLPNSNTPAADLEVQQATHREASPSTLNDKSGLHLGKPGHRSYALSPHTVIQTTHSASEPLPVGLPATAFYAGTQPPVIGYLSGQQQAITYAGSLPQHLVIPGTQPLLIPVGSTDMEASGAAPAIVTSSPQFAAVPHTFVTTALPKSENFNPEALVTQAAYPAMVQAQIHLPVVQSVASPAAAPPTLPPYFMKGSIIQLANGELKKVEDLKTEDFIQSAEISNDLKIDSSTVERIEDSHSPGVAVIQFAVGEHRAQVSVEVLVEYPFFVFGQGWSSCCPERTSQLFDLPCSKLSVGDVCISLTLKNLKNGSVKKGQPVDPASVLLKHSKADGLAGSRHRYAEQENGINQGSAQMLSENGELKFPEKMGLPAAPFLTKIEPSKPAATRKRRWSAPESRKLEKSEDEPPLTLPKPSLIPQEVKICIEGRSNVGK
Protocol: (1) PolyQ-ATXN1 cDNA (where polyQ is Q92) was synthesized de novo and subcloned into pcDNA vector. It transfected into HEK293T cells (ATCC, CRL-3216) to obtain cells expressing His-ATXN1-Q92 (SEQ ID NO: 3 with a His tag at the N-terminal).
(2) The His-ATXN1-Q92 expressed in (1) was purified to obtain ATXN1 with abnormally expanded polyQ.
To identify compound(s) that can bind to ATXN1 with abnormally expanded polyQ, screening was conducted using a method similar to step (1) of 1.1, except for that the target protein HTTexon1-Q72-MBP in step (1) of 1.1 was replaced with His-ATXN1-Q92.

mHTT = target: T4, mHTT (Homo sapiens, UniProt P42858, INS38QQQQQQQQQQQQQQQQQQQQQQQQQQ); assay: HTRF mHTT level in HD patient iPSC-derived neurons; format: cell-based; settings: iPSC-derived neurons (Q47)
T4 construct: endogenous in cells; host or cells: HD patient iPSC-derived neurons (Q47)
T4 sequence (P42858 other isoform, or with tags, fused parts or gaps with the stated changes): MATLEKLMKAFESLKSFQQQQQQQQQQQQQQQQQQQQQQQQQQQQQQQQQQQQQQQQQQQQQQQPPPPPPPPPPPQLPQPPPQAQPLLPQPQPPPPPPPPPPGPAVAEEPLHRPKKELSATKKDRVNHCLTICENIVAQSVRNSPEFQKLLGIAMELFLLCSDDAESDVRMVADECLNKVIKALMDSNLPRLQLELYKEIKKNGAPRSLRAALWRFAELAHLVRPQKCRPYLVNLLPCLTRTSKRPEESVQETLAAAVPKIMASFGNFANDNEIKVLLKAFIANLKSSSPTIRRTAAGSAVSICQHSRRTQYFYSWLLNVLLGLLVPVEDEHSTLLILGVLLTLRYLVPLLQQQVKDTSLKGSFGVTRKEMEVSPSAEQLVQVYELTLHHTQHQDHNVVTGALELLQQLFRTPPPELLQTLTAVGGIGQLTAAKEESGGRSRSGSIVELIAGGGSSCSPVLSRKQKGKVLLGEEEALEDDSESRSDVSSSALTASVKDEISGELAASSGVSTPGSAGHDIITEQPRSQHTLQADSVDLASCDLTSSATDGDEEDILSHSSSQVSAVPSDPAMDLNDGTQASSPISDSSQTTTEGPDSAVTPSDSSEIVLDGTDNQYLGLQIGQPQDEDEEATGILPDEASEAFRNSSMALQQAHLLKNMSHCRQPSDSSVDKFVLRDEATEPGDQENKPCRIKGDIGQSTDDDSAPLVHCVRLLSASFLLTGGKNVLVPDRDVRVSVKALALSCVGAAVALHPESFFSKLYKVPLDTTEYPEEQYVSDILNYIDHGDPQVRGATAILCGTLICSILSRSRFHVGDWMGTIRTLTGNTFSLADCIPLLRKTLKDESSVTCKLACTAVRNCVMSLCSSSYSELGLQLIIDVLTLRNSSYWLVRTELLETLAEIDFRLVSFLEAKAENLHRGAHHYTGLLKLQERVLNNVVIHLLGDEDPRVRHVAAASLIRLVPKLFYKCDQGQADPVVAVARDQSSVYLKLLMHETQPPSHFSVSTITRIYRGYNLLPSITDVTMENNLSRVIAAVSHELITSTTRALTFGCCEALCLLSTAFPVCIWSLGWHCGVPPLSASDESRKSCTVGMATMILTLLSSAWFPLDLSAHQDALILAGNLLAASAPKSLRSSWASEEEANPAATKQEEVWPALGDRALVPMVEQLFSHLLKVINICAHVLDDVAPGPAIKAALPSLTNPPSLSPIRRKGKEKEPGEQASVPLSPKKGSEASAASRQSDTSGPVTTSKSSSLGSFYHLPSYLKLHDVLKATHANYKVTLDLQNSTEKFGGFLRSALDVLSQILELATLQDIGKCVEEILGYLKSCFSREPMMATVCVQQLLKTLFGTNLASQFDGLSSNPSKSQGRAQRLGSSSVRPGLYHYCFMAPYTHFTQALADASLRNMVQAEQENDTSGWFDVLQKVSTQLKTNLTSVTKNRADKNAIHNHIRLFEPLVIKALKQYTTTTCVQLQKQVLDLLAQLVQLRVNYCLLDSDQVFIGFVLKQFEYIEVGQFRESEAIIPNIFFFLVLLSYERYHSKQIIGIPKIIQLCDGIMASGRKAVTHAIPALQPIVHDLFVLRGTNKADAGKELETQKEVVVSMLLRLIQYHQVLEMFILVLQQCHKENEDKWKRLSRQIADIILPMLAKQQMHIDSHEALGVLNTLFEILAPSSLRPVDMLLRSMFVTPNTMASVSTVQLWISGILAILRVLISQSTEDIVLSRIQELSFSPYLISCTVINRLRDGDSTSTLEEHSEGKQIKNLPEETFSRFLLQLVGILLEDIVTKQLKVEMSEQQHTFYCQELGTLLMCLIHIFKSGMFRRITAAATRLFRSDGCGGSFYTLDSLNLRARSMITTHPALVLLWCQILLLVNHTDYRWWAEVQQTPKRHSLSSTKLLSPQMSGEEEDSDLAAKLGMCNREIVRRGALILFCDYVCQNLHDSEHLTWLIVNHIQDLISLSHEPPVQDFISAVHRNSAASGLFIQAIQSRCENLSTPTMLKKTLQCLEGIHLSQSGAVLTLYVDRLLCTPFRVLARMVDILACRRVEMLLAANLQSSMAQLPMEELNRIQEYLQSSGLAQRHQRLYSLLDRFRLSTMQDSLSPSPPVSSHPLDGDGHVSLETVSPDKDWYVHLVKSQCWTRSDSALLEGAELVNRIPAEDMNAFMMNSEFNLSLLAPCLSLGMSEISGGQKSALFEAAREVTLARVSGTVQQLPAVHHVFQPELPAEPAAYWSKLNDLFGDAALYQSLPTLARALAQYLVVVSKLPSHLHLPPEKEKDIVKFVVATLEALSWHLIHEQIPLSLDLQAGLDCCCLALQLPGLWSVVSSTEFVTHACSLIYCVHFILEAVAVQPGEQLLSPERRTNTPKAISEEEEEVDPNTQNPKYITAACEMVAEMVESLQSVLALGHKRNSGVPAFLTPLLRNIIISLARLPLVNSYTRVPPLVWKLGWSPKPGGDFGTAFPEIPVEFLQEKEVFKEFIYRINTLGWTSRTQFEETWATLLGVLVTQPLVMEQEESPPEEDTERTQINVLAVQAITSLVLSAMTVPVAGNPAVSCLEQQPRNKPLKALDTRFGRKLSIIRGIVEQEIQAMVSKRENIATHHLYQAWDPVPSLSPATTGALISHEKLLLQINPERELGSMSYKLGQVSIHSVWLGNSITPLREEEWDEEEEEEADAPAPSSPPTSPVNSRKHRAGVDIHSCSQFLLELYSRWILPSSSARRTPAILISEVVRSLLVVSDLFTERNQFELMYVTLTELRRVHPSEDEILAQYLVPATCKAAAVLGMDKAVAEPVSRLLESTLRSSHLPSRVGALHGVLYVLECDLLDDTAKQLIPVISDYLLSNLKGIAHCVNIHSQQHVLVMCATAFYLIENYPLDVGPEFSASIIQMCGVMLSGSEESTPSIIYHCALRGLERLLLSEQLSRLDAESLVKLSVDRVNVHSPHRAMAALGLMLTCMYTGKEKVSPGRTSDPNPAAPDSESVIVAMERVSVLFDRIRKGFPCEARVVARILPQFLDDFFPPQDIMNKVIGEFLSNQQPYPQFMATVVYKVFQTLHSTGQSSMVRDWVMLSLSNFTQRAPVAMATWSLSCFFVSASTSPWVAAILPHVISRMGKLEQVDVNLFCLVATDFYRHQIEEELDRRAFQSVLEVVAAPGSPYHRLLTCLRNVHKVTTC

O=C1Nc2ccc(I)cc2/C1=C/c1cc(Br)c(O)c(Br)c1 [compound 1, GW5074]
binding between HTTexon1-Q72-MBP and LC3B [1]: could enhance the binding | binding affinity with normal ATXN3 protein (MBP-ATXN3-Q28) (MBP-ATXN3-Q28): no binding affinity | binding to His-ATXN1-Q92 (His-ATXN1-Q92): can bind | mHTT levels (mHTT; 2B7/MW1): Decreased mHTT levels were observed | mHTT levels (mHTT; presence of the autophagy inhibitor NH4Cl): this effect was not observed
